Experimental data taken from the supplement of paper PMC10307832.

Columns and labels:
Assay in all cases: relative viability (nuclei count vs DMSO), 5 days (fraction); higher = more cells survive
Irinotecan + OSI-027 = compound: CCc1c2c(nc3ccc(OC(=O)N4CCC(N5CCCCC5)CC4)cc13)-c1cc3c(c(=O)n1C2)COC(=O)[C@]3(O)CC [Irinotecan] + COc1cccc2cc(-c3nc([C@H]4CC[C@H](C(=O)O)CC4)n4ncnc(N)c34)[nH]c12 [OSI-027] (partner 0.5 µM)
Method in brief: (§1)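 A single step with final 0.05% Triton X-100, 1% formaldehyde and 1 ug/ml Hoechst fixed the cells and stained nuclei 5 days after treatment. Lung cancer cell lines in 1536-well plates had been treated by pin tool the day after seeding with one drug alone or a fixed anchor-drug dose plus five library-drug doses (not always all listed) in √10 steps, and nuclei were counted on 4× images. Relative viability is the ratio of nuclei in treated wells to nuclei in vehicle wells, taken as the median of duplicate plates.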

Irinotecan + Olaparib = compound: CCc1c2c(nc3ccc(OC(=O)N4CCC(N5CCCCC5)CC4)cc13)-c1cc3c(c(=O)n1C2)COC(=O)[C@]3(O)CC [Irinotecan] + O=C(c1cc(Cc2n[nH]c(=O)c3ccccc23)ccc1F)N1CCN(C(=O)C2CC2)CC1 [Olaparib] (partner 8 µM)
Method in brief: as §1

MK-8033 + Pictilisib = compound: Cn1cc(-c2cnc3ccc4ccc(CS(=O)(=O)NCc5ccccn5)cc4c(=O)c3c2)cn1 [MK-8033] + CS(=O)(=O)N1CCN(Cc2cc3nc(-c4cccc5[nH]ncc45)nc(N4CCOCC4)c3s2)CC1 [Pictilisib] (partner 1 µM)
Method in brief: as §1

MK-8033 + Olaparib = compound: Cn1cc(-c2cnc3ccc4ccc(CS(=O)(=O)NCc5ccccn5)cc4c(=O)c3c2)cn1 [MK-8033] + O=C(c1cc(Cc2n[nH]c(=O)c3ccccc23)ccc1F)N1CCN(C(=O)C2CC2)CC1 [Olaparib] (partner 8 µM)
Method in brief: as §1

Cell Line	relative viability (Irinotecan + OSI-027; first compound 2 µM)	relative viability (Irinotecan + OSI-027; first compound 6.325 µM)	relative viability (Irinotecan + OSI-027; first compound 20 µM)	relative viability (Irinotecan + Olaparib; first compound 0.6325 µM)	relative viability (Irinotecan + Olaparib; first compound 2 µM)	relative viability (Irinotecan + Olaparib; first compound 6.325 µM)	relative viability (Irinotecan + Olaparib; first compound 20 µM)	relative viability (MK-8033 + Pictilisib; first compound 0.02 µM)	relative viability (MK-8033 + Pictilisib; first compound 0.06325 µM)	relative viability (MK-8033 + Pictilisib; first compound 0.2 µM)	relative viability (MK-8033 + Pictilisib; first compound 0.6325 µM)	relative viability (MK-8033 + Pictilisib; first compound 2 µM)	relative viability (MK-8033 + Olaparib; first compound 0.02 µM)	relative viability (MK-8033 + Olaparib; first compound 0.06325 µM)	relative viability (MK-8033 + Olaparib; first compound 0.2 µM)	relative viability (MK-8033 + Olaparib; first compound 0.6325 µM)	relative viability (MK-8033 + Olaparib; first compound 2 µM)	relative viability (Irinotecan + OSI-027; first compound 0.6325 µM)
HCC-15	0.441	0.198	0.14	0.213	0.279	0.202	0.146	0.829	0.632	0.698	0.767	0.754	0.807	0.611	0.737	0.67	0.529	
RERF-LC-KJ	0.492	0.534	0.112	0.806	0.56	0.38	0.243	0.508	0.417	0.519	0.501	0.533	1.03	0.973	0.884	0.899	0.882	0.364
PC-3 [JPC-3]	0.785	0.397	0.344	0.766	0.908	0.448	0.221	0.666		0.655	0.56	0.762	1.08		1.04	1.16	1.09	0.46
NCI-H1355	0.375	0.269	0.25		0.321	0.278	0.209	0.424	0.302	0.442	0.393	0.442	0.759	0.759	0.632	0.756	0.696	
NCI-H460	0.494	0.12	0.043		0.214	0.0942	0.125	0.432	0.285	0.395	0.253	0.402	0.419	0.462	0.36	0.498	0.413	0.347
NCI-H2228	0.472	0.288	0.342	0.496	0.486	0.451	0.486	0.397	0.599	0.356	0.336	0.357	0.79	0.568	0.52	0.865	0.619	0.341
LCLC-103H	0.496	0.339	0.347	0.469	0.483	0.407	0.444	0.616	0.589	0.593	0.737	0.638	0.731	0.778	0.737	0.729	0.815	0.483
SK-LU-1	0.301	0.293	0.238	0.312	0.265	0.29	0.218	0.658	0.499	0.449	0.54	0.622	0.435	0.471	0.426	0.497	0.394	0.302
201T	0.643	0.344	0.153	0.53	0.312	0.231	0.264	0.684	0.579	0.657	0.654	0.697	0.873	0.824	0.832	0.82	0.822	0.723
